pIC50: −log10 of the molar value. Where a name gives a salt, the structure may show the parent alone.
Assays:
UGT1A1 = target: T1, UGT1A1 (Homo sapiens, UniProt P22309); assay: UGT inhibition assay, UGT1A1; type: in vitro ADME
T1 sequence (P22309 26-533): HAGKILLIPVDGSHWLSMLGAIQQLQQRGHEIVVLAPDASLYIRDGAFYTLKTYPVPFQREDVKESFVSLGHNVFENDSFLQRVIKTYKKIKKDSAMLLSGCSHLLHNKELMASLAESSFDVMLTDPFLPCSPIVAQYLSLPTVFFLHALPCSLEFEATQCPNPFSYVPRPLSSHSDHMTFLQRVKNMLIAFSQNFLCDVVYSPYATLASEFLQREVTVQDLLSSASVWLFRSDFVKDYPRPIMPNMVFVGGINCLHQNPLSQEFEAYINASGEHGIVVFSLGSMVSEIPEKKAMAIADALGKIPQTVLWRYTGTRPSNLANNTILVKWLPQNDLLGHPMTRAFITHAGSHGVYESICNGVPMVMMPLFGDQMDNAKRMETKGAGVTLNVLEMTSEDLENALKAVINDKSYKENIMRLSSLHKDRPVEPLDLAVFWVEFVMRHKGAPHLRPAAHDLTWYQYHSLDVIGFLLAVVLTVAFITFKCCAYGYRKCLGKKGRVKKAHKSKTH
Excerpt: 2R,6R-hydroxynorketamine was therefore investigated for its potential to inhibit this isozyme, along with that of the major UGT isozyme, UGT1A1, using a UGT inhibition assay.

UGT2B7 = UGT2B7 (Homo sapiens, UniProt P16662); assay: UGT inhibition assay, UGT2B7; type: in vitro ADME
Chain of UGT2B7 (P16662 24-529): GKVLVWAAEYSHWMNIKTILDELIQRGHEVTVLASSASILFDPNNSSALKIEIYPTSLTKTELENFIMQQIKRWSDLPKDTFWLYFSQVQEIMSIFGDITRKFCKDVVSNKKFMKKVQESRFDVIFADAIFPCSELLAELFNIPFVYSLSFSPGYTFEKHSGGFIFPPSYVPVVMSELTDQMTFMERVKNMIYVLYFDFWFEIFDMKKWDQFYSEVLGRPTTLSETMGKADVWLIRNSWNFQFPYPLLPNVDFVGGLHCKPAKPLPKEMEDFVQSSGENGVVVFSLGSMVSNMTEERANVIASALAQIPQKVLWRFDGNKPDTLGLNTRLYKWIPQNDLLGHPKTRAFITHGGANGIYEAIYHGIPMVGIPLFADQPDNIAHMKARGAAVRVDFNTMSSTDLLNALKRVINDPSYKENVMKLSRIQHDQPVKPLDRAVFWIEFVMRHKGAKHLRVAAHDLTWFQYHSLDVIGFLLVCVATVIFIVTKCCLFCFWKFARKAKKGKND

plasma binding proteins = conditions: background statement on SSRIs; cited from earlier work
in vitro = conditions: human

With N[C@@]1(c2ccccc2Cl)CCC[C@@H](O)C1=O [2R-6R-Hydroxynorketamine Hydrochloride, 2R,6R-hydroxynorketamine hydrochloride] the pIC50 (UGT1A1) was less than 4.00 and the pIC50 (UGT2B7) was less than 4.00.

Work on COC(=O)N[C@H](C(=O)N[C@@H](Cc1ccccc1)[C@@H](O)CN(Cc1ccc(-c2ccccn2)cc1)NC(=O)[C@@H](NC(=O)OC)C(C)(C)C)C(C)(C)C [Atazanavir] yielded a pIC50 (UGT1A1) of 6.82.

In the case of CNCCC(Oc1ccc(C(F)(F)F)cc1)c1ccccc1 (centres unmarked) [fluoxetine], the protein bound (plasma binding proteins) is listed as 94%.

In the case of Fc1ccc([C@@H]2CCNC[C@H]2COc2ccc3c(c2)OCO3)cc1 [paroxetine], the protein bound (plasma binding proteins) is listed as 95%.

Molecule CC(C)NCC(O)COc1cccc2ccccc12 (centres unmarked) [propranolol, reference compound] has a recovery (in vitro; Caco-2, Direction = A2B Mean % Recovery, Caco-2, A2B) of 71.1%, a Papp A→B (in vitro; Caco-2, Direction = A2B Mean Papp, Caco-2, A2B, mean, n 2) of 26.7 ×10⁻⁶ cm/s and a Papp A→B (in vitro; Caco-2, Direction = A2B Papp Replicate 1, Caco-2, A2B, replicate 1) of 26 ×10⁻⁶ cm/s. For the same molecule, the Papp A→B (in vitro; Caco-2, Direction = A2B Papp Replicate 2, Caco-2, A2B, replicate 2) was 27.4 ×10⁻⁶ cm/s, the recovery (in vitro; Caco-2, Direction = B2A Mean % Recovery, Caco-2, B2A) was 82.8% and the Papp B→A (in vitro; Caco-2, Direction = B2A Papp Replicate 2, Caco-2, B2A, replicate 2) was 26.2 ×10⁻⁶ cm/s.
